Conditions: Liquid, Closed cell (Static) method

C=CCC [1-butene]
Conditions	vapor or sublimation pressure [kPa]
302.9 K	343
307.83 K	396
312.96 K	456
318.05 K	521
322.94 K	593
328.06 K	671
332.97 K	759
337.99 K	855
342.98 K	957
347.93 K	1069
353.18 K	1197

FC(F)(F)C1(F)OC1(F)F (centres undefined) [2,2,3-trifluoro-3-(trifluoromethyl)oxirane]
Conditions	vapor or sublimation pressure [kPa]
302.95 K	786
307.93 K	896
312.93 K	1015
317.86 K	1150
322.92 K	1298
327.88 K	1474
332.87 K	1658
337.87 K	1864
342.88 K	2075
347.85 K	2313

FCF [difluoromethane]
Conditions	vapor or sublimation pressure [kPa]
280.59 K	1022
283.05 K	1109
285.52 K	1195
288.02 K	1280
290.46 K	1364
293.02 K	1474
295.49 K	1578
298.01 K	1684
300.48 K	1793
302.94 K	1918
305.46 K	2051
307.91 K	2179
310.48 K	2318
312.9 K	2459
315.43 K	2614
317.89 K	2772
320.41 K	2948
322.92 K	3120
325.42 K	3303
327.9 K	3498
330.35 K	3694
332.91 K	3910
335.4 K	4138
337.93 K	4370
340.43 K	4602
342.88 K	4854
345.4 K	5117
347.89 K	5392

Source: the NIST ThermoML archive (doi:10.1016/j.jct.2013.01.017)
